US10525063B2, “Methods of reducing mammographic breast density and/or breast cancer risk” (HAVAH THERAPEUTICS PTY LTD., priority 2014, dated 2020)
Where two headings read alike, the source gives them in different places.

Legend:
[1] = Serum anastrozole by liquid chromatography-tandem mass spectrometry; format: in vivo, human; settings: for concentration at 3 month / concentration at 1 month: human, serum
Description: FAI is calculated from a formula where the serum measurement of total testosterone and sex hormone binding globulin are calculated by radio immunoassay. Aromatase inhibitor serum level is determined by liquid chromatography-tandem mass spectrometry.
All thirty having serum drawn at baseline and at 1 year for serum testosterone and sex hormone binding globulin so that free-androgen index could be calculated (FAI=the ratio of the total testosterone level divided by the sex hormone binding globulin level, and then multiplied by a 100 to give a percentage).

[2] = test system: mammographic breast density; settings: background statement; cited from earlier work
[3] = cited from earlier work

## CC(C)(C#N)c1cc(Cn2cncn2)cc(C(C)(C)C#N)c1 [anastrozole, 2,2′-[5-(1H-1,2,4-triazol-1-ylmethyl)-1,3-phenylene]bis(2-methylpropanenitrile)]
[1]; Example 2, 30 patients, s.c. testosterone and anastrozole at 4 months intervals
  Serum anastrazole (ng/ml) End 1st year 3 month trough, median (range): 32 (22-39) ng/ml
[1]; female, sc, Example 2, 30 patients, s.c. testosterone and anastrozole at 4 months intervals, read-out: Serum anastrazole (ng/ml) 1st 3 month trough, median (range)
  concentration at 3 month: 27 ng/mL
[1]; sc, Serum anastrozole, Example 1, Pellet 1 (testosterone 59 mg, anastrozole 2.75 mg, s.c.)
  concentration at 1 month: 38 ng/mL
[1]; sc, Serum anastrozole, Example 1, Pellet 1 (testosterone 59 mg, anastrozole 2.75 mg, s.c.), 3 month
  concentration at 3 month: 28 ng/mL
[1]; subcutaneous, Serum anastrozole, Example 1, Pellet 2 (testosterone 71 mg, anastrozole 2.75 mg)
  concentration at 1 month: 35 ng/mL
[1]; subcutaneous, Serum anastrozole, Example 1, Pellet 2 (testosterone 71 mg, anastrozole 2.75 mg), 3 month
  concentration at 3 month: 25 ng/mL
[1]; subcutaneous, Serum anastrozole, Example 1, Pellet 3 (testosterone 71 mg, anastrozole 2.75 mg)
  concentration at 1 month: 38 ng/mL
[1]; subcutaneous, Serum anastrozole, Example 1, Pellet 3 (testosterone 71 mg, anastrozole 2.75 mg), 3 month
  concentration at 3 month: 28 ng/mL

## CC/C(=C(\c1ccccc1)c1ccc(OCCN(C)C)cc1)c1ccccc1 [tamoxifen]
[2]
  Effect on mammographic breast density: has been shown to reduce mammographic breast density

## CCCCCCCCCCC(=O)O[C@H]1CC[C@H]2[C@@H]3CCC4=CC(=O)CC[C@]4(C)[C@H]3CC[C@]12C [testosterone undecanoate]
[3]; by-passes the liver via the lymphatic system
  Oral bioavailability: orally bioavailable

## C[C@]12CC[C@H]3[C@@H](CCC4=CC(=O)CC[C@@]43C)[C@@H]1CC[C@@H]2O [testosterone]
[3]; oral delivery
  Fraction broken down in the liver as it is absorbed from the gut: 80-90%
[3]; oral
  Fraction broken down in the intestines by aromatase and other metabolic pathways: approximately 85%
